The subject of series [1] is larvae of the mustard beetle (Phaedon cochleariae). In words: Phaedon test (PHAECO spray treatment). The format is in vivo. The conditions noted are these: 168 h, 100 g/ha, after 7 days, read-out: activity in %. Summed up: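 Mortality of mustard beetle larvae, expressed as percent killed (100% all, 0% none), assessed 7 days after spraying. Spray liquor made from compound in acetone plus dimethylformamide with alkylaryl polyglycol ether, diluted in emulsifier-containing water to the desired concentration.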

The test system of series [2] is caterpillars of the armyworm (Spodoptera frugiperda). In words: Spodoptera frugiperda test (SPODFR spray treatment). Type of series: in vivo. As to conditions: 168 h, after 7 days; for pest or weed control at 100 g/ha: read-out: activity in %. Summed up:
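Percent caterpillar mortality read 7 days after infestation (0% none killed, 100% all killed). Treatment was a spray of the acetone/DMF/emulsifier formulation, water-diluted to test concentration, onto Zea mays leaf discs, allowed to dry before larvae were added.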

Series [3] can be described thus: log P determination by HPLC on reversed-phase columns (EEC Directive 79/831 Annex V.A8). The format is physicochemical. As to conditions: pH 2.7. Summed up:
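Calibration used unbranched alkan-2-ones of 3 to 16 carbons with known log P, values interpolated linearly from retention times between neighbouring standards. Acidic-range LC-MS run at pH 2.7, eluents aqueous and acetonitrile formic acid 0.1%, linear gradient 10% to 95% acetonitrile.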

Where [4] appears, read: reversed-phase C18 HPLC column, HPLC on reversed-phase columns (C 18), EEC Directive 79/831 Annex V.A8, read-out: logP.

SMILES strings stand for the structures. Read-outs that look alike come from different tables or passages of the source.

In the case of `CNC(=O)c1cc(I)cc(C)c1NC(=O)c1cc(Cn2cc(C(F)(F)F)nn2)nn1-c1ncccc1Cl` [Example 206], the pest or weed control at 100 g/ha in series [1] and in series [2] was 100% in each case. The chromatographic logP in series [3] was 2.86.

With `Cc1cc(I)cc(C(=O)NC(C)C2CC2)c1NC(=O)c1cc(Cn2cc(C(F)(F)F)nn2)nn1-c1ncccc1Cl` (stereo not drawn) [Example 207], the pest or weed control at 100 g/ha in series [1] and in series [2] was 100% each time. This molecule also returned a chromatographic logP in series [3] of 3.69.

Turning to `Cc1cc(I)cc(C(=O)NC2CC2)c1NC(=O)c1cc(Cn2cc(C(F)(F)F)nn2)nn1-c1ncccc1Cl` [Example 208], the pest or weed control at 100 g/ha in series [1] and in series [2] was 100% each time. In addition, the chromatographic logP in series [3] worked out at 3.15.

On to `CCNC(=O)c1cc(I)cc(C)c1NC(=O)c1cc(Cn2cc(C(F)(F)F)nn2)nn1-c1ncccc1Cl` [Example 209], for which the pest or weed control at 100 g/ha in series [1] and in series [2] was 100% each time. The same molecule displayed a chromatographic logP in series [3] of 3.04.

Take `Cc1cc(I)cc(C(=O)NC(C)C)c1NC(=O)c1cc(Cn2cc(C(F)(F)F)nn2)nn1-c1ncccc1Cl` [Example 210]: the pest or weed control at 100 g/ha in series [1] and in series [2] was 100% in each case. This molecule gave a chromatographic logP in series [3] of 3.38.

Regarding `Cc1cc(I)cc(C(=O)NC(C)(C)C)c1NC(=O)c1cc(Cn2cc(C(F)(F)F)nn2)nn1-c1ncccc1Cl` [Example 211], the pest or weed control at 100 g/ha in series [1] and in series [2] was 100% each time. The molecule also had a chromatographic logP in series [3] of 3.72.

Regarding `Cc1cc(I)cc(C(=O)NCC2CC2)c1NC(=O)c1cc(Cn2cc(C(F)(F)F)nn2)nn1-c1ncccc1Cl` [Example 214], the pest or weed control at 100 g/ha in series [1] and in series [2] was 100% throughout. Further, the chromatographic logP in series [3] was 3.45.

Turning to `Cc1cc(C#N)cc(C(=O)NC(C)C)c1NC(=O)c1cc(Cn2nncc2C(F)(F)F)nn1-c1ncccc1Cl` [Example 216], the pest or weed control at 100 g/ha in series [1] and in series [2] was 100% throughout. In addition, the chromatographic logP in series [3] turned out to be 2.63.

For the molecule `Cc1cc(Cl)cc(C(=O)NC(C)C2CC2)c1NC(=O)c1cc(Cn2cc(C(F)(C(F)(F)F)C(F)(F)F)nn2)nn1-c1ncccc1Cl` (stereo not drawn) [Example 226], the pest or weed control at 100 g/ha in series [1] stood at 100%. For the same molecule, in series [2] (20 g/ha), the pest or weed control at 20 g/ha stood at 100%. Besides, the chromatographic logP in series [3] (setting [4]) amounted to 4.15.

On to `Cc1cc(Cl)cc(C(=O)NC(C)C)c1NC(=O)c1cc(Cn2cc(C(F)(C(F)(F)F)C(F)(F)F)nn2)nn1-c1ncccc1Cl` [Example 227], for which the pest or weed control at 100 g/ha in series [1] and in series [2] was 100% in each case. In series [3], this molecule gave a chromatographic logP of 3.85.

Take `Cc1cc(Cl)cc(C(=O)NCC2CC2)c1NC(=O)c1cc(Cn2cc(C(F)(C(F)(F)F)C(F)(F)F)nn2)nn1-c1ncccc1Cl` [Example 229]: the pest or weed control at 100 g/ha in series [1] and in series [2] was 100% in each case. Also, in series [3] (setting [4]), the chromatographic logP worked out at 3.91.

As to `CNC(=O)c1cc(I)cc(C)c1NC(=O)c1cc(Cn2cc(C(F)(C(F)(F)F)C(F)(F)F)nn2)nn1-c1ncccc1Cl` [Example 233], the pest or weed control at 100 g/ha in series [1] and in series [2] was 100% each time. Also, the chromatographic logP in series [3] was found to be 3.59.

On to `Cc1cc(I)cc(C(=O)NC(C)C2CC2)c1NC(=O)c1cc(Cn2cc(C(F)(C(F)(F)F)C(F)(F)F)nn2)nn1-c1ncccc1Cl` (stereo not drawn) [Example 234], for which the pest or weed control at 100 g/ha in series [1] and in series [2] was 100% throughout. Also, the chromatographic logP in series [3] (setting [4]) is 4.38.

For the molecule `Cc1cc(I)cc(C(=O)NC(C)C)c1NC(=O)c1cc(Cn2cc(C(F)(C(F)(F)F)C(F)(F)F)nn2)nn1-c1ncccc1Cl` [Example 235], the pest or weed control at 100 g/ha in series [1] and in series [2] was 100% throughout. For the same molecule, the chromatographic logP in series [3] was determined as 4.09.

`Cc1cc(I)cc(C(=O)NC(C)(C)C)c1NC(=O)c1cc(Cn2cc(C(F)(C(F)(F)F)C(F)(F)F)nn2)nn1-c1ncccc1Cl` [Example 236]: the pest or weed control at 100 g/ha in series [1] and in series [2] was 100% throughout. Further, the chromatographic logP in series [3] (setting [4]) was found to be 4.43.

Regarding `Cc1cc(I)cc(C(=O)NCC2CC2)c1NC(=O)c1cc(Cn2cc(C(F)(C(F)(F)F)C(F)(F)F)nn2)nn1-c1ncccc1Cl` [Example 237], the pest or weed control at 100 g/ha in series [1] and in series [2] was 100% throughout. Moreover, the chromatographic logP in series [3] (setting [4]) turned out to be 4.14.

Consider `Cc1cc(I)cc(C(=O)NC2CC2)c1NC(=O)c1cc(Cn2cc(C(F)(C(F)(F)F)C(F)(F)F)nn2)nn1-c1ncccc1Cl` [Example 240], for which the pest or weed control at 100 g/ha in series [1] and in series [2] was 100% each time. The chromatographic logP in series [3] came out at 3.83.

In the case of `CC(NC(=O)c1cc(Cl)cc(Cl)c1NC(=O)c1cc(Cn2cc(C(F)(C(F)(F)F)C(F)(F)F)nn2)nn1-c1ncccc1Cl)C1CC1` (stereo not drawn) [Example 242], the pest or weed control at 100 g/ha in series [1] and in series [2] was 100% in each case. In addition, the chromatographic logP in series [3] (setting [4]) was determined as 4.08.

As to `CC(C)NC(=O)c1cc(Cl)cc(Cl)c1NC(=O)c1cc(Cn2cc(C(F)(C(F)(F)F)C(F)(F)F)nn2)nn1-c1ncccc1Cl` [Example 243], the pest or weed control at 100 g/ha in series [1] and in series [2] was 100% in each case. In addition, in series [3], the chromatographic logP amounted to 3.79.

With `CC(C)(C)NC(=O)c1cc(Cl)cc(Cl)c1NC(=O)c1cc(Cn2cc(C(F)(C(F)(F)F)C(F)(F)F)nn2)nn1-c1ncccc1Cl` [Example 244], the pest or weed control at 100 g/ha in series [1] and in series [2] was 100% in each case. For the same molecule, in series [3] (setting [4]), the chromatographic logP was determined as 4.13.

As to `O=C(NCC1CC1)c1cc(Cl)cc(Cl)c1NC(=O)c1cc(Cn2cc(C(F)(C(F)(F)F)C(F)(F)F)nn2)nn1-c1ncccc1Cl` [Example 245], the pest or weed control at 100 g/ha in series [1] and in series [2] was 100% throughout. In addition, the chromatographic logP in series [3] (setting [4]) was found to be 3.84.

On to `O=C(NC1CC1)c1cc(Cl)cc(Cl)c1NC(=O)c1cc(Cn2cc(C(F)(C(F)(F)F)C(F)(F)F)nn2)nn1-c1ncccc1Cl` [Example 248], for which the pest or weed control at 100 g/ha in series [1] and in series [2] was 100% in each case. In series [3], this molecule showed a chromatographic logP of 3.56.

Turning to `Cc1cc(C#N)cc(C(=O)NC(C)C2CC2)c1NC(=O)c1cc(Cn2ncc(C(F)(C(F)(F)F)C(F)(F)F)n2)nn1-c1ncccc1Cl` (stereo not drawn) [Example 250], the pest or weed control at 100 g/ha in series [1] and in series [2] was 100% in each case. Moreover, in series [3] (setting [4]), the chromatographic logP worked out at 4.2.

`Cc1cc(C#N)cc(C(=O)NC(C)C)c1NC(=O)c1cc(Cn2ncc(C(F)(C(F)(F)F)C(F)(F)F)n2)nn1-c1ncccc1Cl` [Example 251]: the pest or weed control at 100 g/ha in series [1] and in series [2] was 100% throughout. Further, the chromatographic logP in series [3] (setting [4]) is 3.89.

Consider `Cc1cc(C#N)cc(C(=O)NC(C)(C)C)c1NC(=O)c1cc(Cn2ncc(C(F)(C(F)(F)F)C(F)(F)F)n2)nn1-c1ncccc1Cl` [Example 252], for which the pest or weed control at 100 g/ha in series [1] and in series [2] was 100% each time. For the same molecule, in series [3] (setting [4]), the chromatographic logP turned out to be 4.21.

For `Cc1cc(C#N)cc(C(=O)NCC2CC2)c1NC(=O)c1cc(Cn2ncc(C(F)(C(F)(F)F)C(F)(F)F)n2)nn1-c1ncccc1Cl` [Example 253], the pest or weed control at 100 g/ha in series [1] and in series [2] was 100% in each case. The chromatographic logP in series [3] (setting [4]) was determined as 3.95.

With `Cc1cc(C#N)cc(C(=O)NC2CC2)c1NC(=O)c1cc(Cn2ncc(C(F)(C(F)(F)F)C(F)(F)F)n2)nn1-c1ncccc1Cl` [Example 256], the pest or weed control at 100 g/ha in series [1] and in series [2] was 100% each time. The chromatographic logP in series [3] (setting [4]) was 3.63.

With `CNC(=O)c1cc(Cl)cc(C)c1NC(=O)c1cc(Cn2ncc(C(F)(C(F)(F)F)C(F)(F)F)n2)nn1-c1ncccc1Cl` [Example 257], the pest or weed control at 100 g/ha in series [1] and in series [2] was 100% each time. The chromatographic logP in series [3] amounted to 3.76.

With `Cc1cc(Cl)cc(C(=O)NC(C)C2CC2)c1NC(=O)c1cc(Cn2ncc(C(F)(C(F)(F)F)C(F)(F)F)n2)nn1-c1ncccc1Cl` (stereo not drawn) [Example 258], the pest or weed control at 100 g/ha in series [1] and in series [2] was 100% in each case. In addition, in series [3] (setting [4]), the chromatographic logP worked out at 4.61.

On to `Cc1cc(Cl)cc(C(=O)NC(C)C)c1NC(=O)c1cc(Cn2ncc(C(F)(C(F)(F)F)C(F)(F)F)n2)nn1-c1ncccc1Cl` [Example 259], for which the pest or weed control at 100 g/ha in series [1] and in series [2] was 100% in each case. Moreover, the chromatographic logP in series [3] was 4.3.

For `Cc1cc(Cl)cc(C(=O)NC(C)(C)C)c1NC(=O)c1cc(Cn2ncc(C(F)(C(F)(F)F)C(F)(F)F)n2)nn1-c1ncccc1Cl` [Example 260], the pest or weed control at 100 g/ha in series [1] and in series [2] was 100% each time. For the same molecule, in series [3] (setting [4]), the chromatographic logP is 4.64.

On to `Cc1cc(Cl)cc(C(=O)NCC2CC2)c1NC(=O)c1cc(Cn2ncc(C(F)(C(F)(F)F)C(F)(F)F)n2)nn1-c1ncccc1Cl` [Example 261], for which the pest or weed control at 100 g/ha in series [1] and in series [2] was 100% in each case. The chromatographic logP in series [3] (setting [4]) worked out at 4.34.

In the case of `Cc1cc(Cl)cc(C(=O)NC2CC2)c1NC(=O)c1cc(Cn2ncc(C(F)(C(F)(F)F)C(F)(F)F)n2)nn1-c1ncccc1Cl` [Example 264], the pest or weed control at 100 g/ha in series [1] and in series [2] was 100% throughout. The same molecule returned a chromatographic logP in series [3] of 4.01.

For the origin of these results see patent publication US8536202B2, “Triazole-substituted anthranilamides as pesticides” (Bayer Cropscience AG, priority 2010, dated 2013).
